Source: the NIST ThermoML archive (doi:10.1021/acs.jced.6b00210)

How the values were obtained:
[1] = 100 kPa, Liquid; for viscosity: Concentric cylinders viscometry; for mass density: Vibrating tube method
[2] = xn = mol fraction of the nth substance listed; details: 100 kPa, Liquid, x2 = 0; for viscosity: Concentric cylinders viscometry; for mass density: Vibrating tube method

Nc1ccccc1 [aniline]
[1]
Details | mass density [kg/m3] | viscosity [mPa·s]
293.15 K | 1021.7 | 4.37
298.15 K | 1017.4 | 3.8
303.15 K | 1013.2 | 3.13
308.15 K | 1009 | 2.75
313.15 K | 1004.7 | 2.43
318.15 K | 1000.4 | 2.14
323.15 K | 995.5 | 1.96

CC(C)O [propan-2-ol]
[1]
Details | mass density [kg/m3] | viscosity [mPa·s]
293.15 K | 785.4 | 2.42
298.15 K | 781.1 | 2.08
303.15 K | 776.8 | 1.8
308.15 K | 772.4 | 1.56
313.15 K | 768 | 1.36
318.15 K | 763.4 | 1.19
323.15 K | 758.8 | 1.05

CCCC(C)O (stereo not drawn) [pentan-2-ol]
[1]
Details | mass density [kg/m3] | viscosity [mPa·s]
293.15 K | 809.3 | 3.97
298.15 K | 805.3 | 3.44
303.15 K | 801.2 | 2.94
308.15 K | 797 | 2.48
313.15 K | 792.7 | 2.04
318.15 K | 788.4 | 1.65
323.15 K | 784 | 1.29

CCCC(C)O (stereo not drawn) [pentan-2-ol] + Nc1ccccc1
[2]
Details | mass density [kg/m3] | viscosity [mPa·s]
293.15 K | 809.3 | 3.97
298.15 K | 805.3 | 3.44
303.15 K | 801.2 | 2.94
308.15 K | 797 | 2.48
313.15 K | 792.7 | 2.04
318.15 K | 788.4 | 1.65
323.15 K | 784 | 1.29

CC(C)O [propan-2-ol] + Nc1ccccc1
[2]
Details | mass density [kg/m3] | viscosity [mPa·s]
293.15 K | 785.4 | 2.42
298.15 K | 781.1 | 2.08
303.15 K | 776.8 | 1.8
308.15 K | 772.4 | 1.56
313.15 K | 768 | 1.36
318.15 K | 763.4 | 1.19
323.15 K | 758.8 | 1.05

CCC(C)O (stereo not drawn) [butan-2-ol]
[1]
Details | mass density [kg/m3] | viscosity [mPa·s]
293.15 K | 806.7 | 3.67
298.15 K | 802.7 | 3.04
303.15 K | 798.4 | 2.54
308.15 K | 794.1 | 2.13
313.15 K | 789.8 | 1.8
318.15 K | 785.2 | 1.54
323.15 K | 780.6 | 1.33

CCC(C)O (stereo not drawn) [butan-2-ol] + Nc1ccccc1
[2]
Details | mass density [kg/m3] | viscosity [mPa·s]
293.15 K | 806.7 | 3.67
298.15 K | 802.7 | 3.04
303.15 K | 798.4 | 2.54
308.15 K | 794.1 | 2.13
313.15 K | 789.8 | 1.8
318.15 K | 785.2 | 1.54
323.15 K | 780.6 | 1.33
